Data on five compounds can be found in ChEMBL document CHEMBL5614367, “Hydroxamic acid hybrids: Histone deacetylase inhibitors with anticancer therapeutic potency” (Eur J Med Chem, 2023).

Series [1] has as its target T1, Protein deacetylase HDAC6 (Homo sapiens, UniProt Q9UBN7).
T1 sequence (Q9UBN7 whole entry): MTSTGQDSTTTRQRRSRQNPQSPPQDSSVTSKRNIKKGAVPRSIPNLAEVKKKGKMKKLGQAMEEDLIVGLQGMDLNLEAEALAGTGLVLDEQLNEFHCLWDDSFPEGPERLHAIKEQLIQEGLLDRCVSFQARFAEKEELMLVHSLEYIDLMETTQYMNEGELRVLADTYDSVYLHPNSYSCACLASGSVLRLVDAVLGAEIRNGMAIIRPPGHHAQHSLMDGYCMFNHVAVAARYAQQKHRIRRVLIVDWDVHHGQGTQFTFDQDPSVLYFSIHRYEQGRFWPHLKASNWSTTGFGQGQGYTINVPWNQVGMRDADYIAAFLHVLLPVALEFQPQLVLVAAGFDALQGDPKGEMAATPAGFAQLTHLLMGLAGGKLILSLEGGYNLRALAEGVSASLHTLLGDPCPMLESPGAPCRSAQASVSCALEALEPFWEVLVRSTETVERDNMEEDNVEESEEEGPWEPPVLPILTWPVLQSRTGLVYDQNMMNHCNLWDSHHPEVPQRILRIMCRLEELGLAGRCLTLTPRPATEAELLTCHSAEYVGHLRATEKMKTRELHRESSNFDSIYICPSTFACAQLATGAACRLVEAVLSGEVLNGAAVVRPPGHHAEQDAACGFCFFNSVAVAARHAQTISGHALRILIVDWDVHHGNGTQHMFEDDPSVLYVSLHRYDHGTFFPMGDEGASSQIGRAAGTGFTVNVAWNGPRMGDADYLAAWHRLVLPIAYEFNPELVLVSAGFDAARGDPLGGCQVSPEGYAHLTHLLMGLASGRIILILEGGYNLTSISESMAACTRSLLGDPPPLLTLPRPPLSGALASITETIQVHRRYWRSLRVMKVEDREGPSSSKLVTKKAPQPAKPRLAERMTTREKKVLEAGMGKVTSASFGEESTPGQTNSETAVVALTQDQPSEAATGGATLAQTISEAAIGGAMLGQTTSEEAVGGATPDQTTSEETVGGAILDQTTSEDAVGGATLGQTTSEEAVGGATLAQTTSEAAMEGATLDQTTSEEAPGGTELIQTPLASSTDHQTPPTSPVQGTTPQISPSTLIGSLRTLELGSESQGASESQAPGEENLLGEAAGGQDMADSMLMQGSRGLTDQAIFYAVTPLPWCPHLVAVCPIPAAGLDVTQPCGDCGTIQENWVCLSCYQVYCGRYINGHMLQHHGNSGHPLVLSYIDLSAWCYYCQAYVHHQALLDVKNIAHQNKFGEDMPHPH
Kind of series: Inhibition of HDAC6 (unknown origin).

The test system of a further series is A549. The series can be described thus: Antiproliferative activity against human A549 cells.
A further series deals with HepG2. The series can be described thus: Antiproliferative activity against human HepG2 cells. In kind it is functional, cell-based.
In a further series the target is Histone deacetylase 1 (Homo sapiens, UniProt Q13547). Kind of series: Inhibition of HDAC1 (unknown origin).
Chain of Histone deacetylase 1 (Q13547 whole entry): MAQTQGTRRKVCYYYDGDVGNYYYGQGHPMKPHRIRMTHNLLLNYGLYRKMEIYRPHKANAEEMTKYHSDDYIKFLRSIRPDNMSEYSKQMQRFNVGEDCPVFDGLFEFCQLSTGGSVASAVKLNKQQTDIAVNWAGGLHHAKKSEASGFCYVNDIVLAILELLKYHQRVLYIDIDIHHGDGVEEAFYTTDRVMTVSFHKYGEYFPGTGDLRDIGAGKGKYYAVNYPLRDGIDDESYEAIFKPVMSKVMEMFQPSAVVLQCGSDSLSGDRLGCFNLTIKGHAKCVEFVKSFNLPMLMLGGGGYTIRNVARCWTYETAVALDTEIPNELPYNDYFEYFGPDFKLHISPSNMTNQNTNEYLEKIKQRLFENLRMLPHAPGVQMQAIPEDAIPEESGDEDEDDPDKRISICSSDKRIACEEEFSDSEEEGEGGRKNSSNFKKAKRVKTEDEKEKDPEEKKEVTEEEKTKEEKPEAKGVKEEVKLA
Another series concerns HT-29. The series can be described thus: Antiproliferative activity against human HT-29 cells. In kind it is functional, cell-based.
A short description of series [2]: Cytotoxicity against human L02 cells. In kind it is toxicity, cell-based.
The nature of series [3]: Cytotoxicity against human NCM460 cells. In kind it is toxicity, cell-based.
Series [4] deals with HCT-116. Kind of series: cells. As to conditions: Homo sapiens.
The subject of another series is A-431. The series can be described thus: Antiproliferative activity against human A-431 cells assessed as inhibition of cell growth by MTT assay. In kind it is functional, cell-based.
Another series concerns MCF7. The series can be described thus: Antiproliferative activity against human MCF7 cells assessed as inhibition of cell growth by MTT assay. In kind it is functional, cell-based.
The subject of series [5] is HCT-116. Kind of series: Antiproliferative activity against human HCT-116 cells assessed as inhibition of cell growth by MTT assay. Format: functional, cell-based.
Series [6] concerns the target E3 ubiquitin-protein ligase Mdm2 (Homo sapiens) (UniProt Q00987). Kind of series: Inhibition of MDM2 (unknown origin) using biotinylated P53 peptide as substrate at 1 uM by HTRF assay relative to control.
The subject of the next series is K562. The series can be described thus: Antiproliferative activity against human K562 cells by MTT assay. In kind it is functional, cell-based.
The next series has as its system U-937. Kind of series: Antiproliferative activity against human U-937 cells by MTT assay. In kind it is functional, cell-based.
Series [7] has as its system HCT-116. The series can be described thus: Antiproliferative activity against human HCT-116 cells by MTT assay. Format: functional, cell-based.
The target in series [8] is DNA (cytosine-5)-methyltransferase 1 (Homo sapiens, UniProt P26358). The series can be described thus: Inhibition of DNMT1 (unknown origin).
Chain of DNA (cytosine-5)-methyltransferase 1 (P26358 whole entry): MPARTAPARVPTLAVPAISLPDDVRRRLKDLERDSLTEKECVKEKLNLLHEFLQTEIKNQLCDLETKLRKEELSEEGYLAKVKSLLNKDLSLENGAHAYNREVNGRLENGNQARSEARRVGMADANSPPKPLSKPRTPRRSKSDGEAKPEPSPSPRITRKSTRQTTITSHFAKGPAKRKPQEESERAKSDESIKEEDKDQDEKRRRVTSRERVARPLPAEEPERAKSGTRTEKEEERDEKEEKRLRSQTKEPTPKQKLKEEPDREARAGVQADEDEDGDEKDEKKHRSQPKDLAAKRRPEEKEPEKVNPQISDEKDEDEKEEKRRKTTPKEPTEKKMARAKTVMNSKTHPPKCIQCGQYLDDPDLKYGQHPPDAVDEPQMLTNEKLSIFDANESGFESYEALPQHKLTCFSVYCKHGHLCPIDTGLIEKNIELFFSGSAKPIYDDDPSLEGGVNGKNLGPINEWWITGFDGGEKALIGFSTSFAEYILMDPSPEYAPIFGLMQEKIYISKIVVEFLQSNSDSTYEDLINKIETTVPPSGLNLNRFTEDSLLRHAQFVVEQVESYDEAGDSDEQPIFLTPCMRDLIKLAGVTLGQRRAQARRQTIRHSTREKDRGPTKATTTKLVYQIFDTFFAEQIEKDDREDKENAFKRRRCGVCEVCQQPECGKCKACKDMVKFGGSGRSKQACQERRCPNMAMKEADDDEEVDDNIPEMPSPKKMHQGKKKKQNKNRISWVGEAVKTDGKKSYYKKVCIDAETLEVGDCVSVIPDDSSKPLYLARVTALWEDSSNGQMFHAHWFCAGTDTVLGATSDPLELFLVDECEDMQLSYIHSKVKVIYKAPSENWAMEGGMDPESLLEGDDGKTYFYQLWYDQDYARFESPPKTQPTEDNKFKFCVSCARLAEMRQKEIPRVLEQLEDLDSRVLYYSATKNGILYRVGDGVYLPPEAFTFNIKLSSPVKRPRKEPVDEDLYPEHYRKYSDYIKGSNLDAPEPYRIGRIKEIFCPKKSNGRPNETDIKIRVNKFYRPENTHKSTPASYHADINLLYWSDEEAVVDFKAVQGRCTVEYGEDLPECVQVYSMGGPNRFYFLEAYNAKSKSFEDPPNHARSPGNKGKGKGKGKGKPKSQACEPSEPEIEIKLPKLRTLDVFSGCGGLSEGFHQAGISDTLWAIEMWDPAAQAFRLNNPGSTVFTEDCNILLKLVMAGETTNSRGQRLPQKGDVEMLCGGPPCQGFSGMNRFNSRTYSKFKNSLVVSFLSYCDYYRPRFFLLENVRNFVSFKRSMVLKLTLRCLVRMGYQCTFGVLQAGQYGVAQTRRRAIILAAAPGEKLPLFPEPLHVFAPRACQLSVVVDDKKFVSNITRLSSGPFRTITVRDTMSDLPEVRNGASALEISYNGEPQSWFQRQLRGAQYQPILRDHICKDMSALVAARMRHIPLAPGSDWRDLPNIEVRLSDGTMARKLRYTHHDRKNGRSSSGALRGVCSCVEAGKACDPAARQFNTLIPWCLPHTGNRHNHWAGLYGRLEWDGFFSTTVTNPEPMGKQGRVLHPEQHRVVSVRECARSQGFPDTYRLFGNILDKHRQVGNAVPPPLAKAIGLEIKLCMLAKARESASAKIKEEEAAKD
A short description of series [9]: Metabolic stability in rat liver microsomes assessed as half life. In kind it is ADME, Microsome.
The next series concerns the target Cytochrome P450 2D6 (Homo sapiens, UniProt P10635). Kind of series: Inhibition of CYP2D6 in human liver microsomes. In kind it is ADME, Microsome.
The subject of series [10] is RPMI-8226. The series can be described thus: Antiproliferative activity against human RPMI-8226 cells assessed as inhibition of cell growth incubated for 48 hrs by MTT assay. In kind it is functional, cell-based. The following applies: RPMI-8226, 48 h.
The subject of a further series is U-266. The series can be described thus: cells. The following applies: Homo sapiens, U-266, 48 h. Format: functional, cell-based.
The next series relates to MM1.S. Kind of series: Antiproliferative activity against human MM1.S cells assessed as inhibition of cell growth incubated for 48 hrs by MTT assay. Format: functional, cell-based.
Series [11] is described as follows: Cytotoxicity against HEK293 cells assessed as inhibition of cell growth incubated for 48 hrs by MTT assay. In kind it is toxicity, cell-based. As to conditions: human.
A short description of series [12]: Cytotoxicity against human L02 cells assessed as inhibition of cell growth incubated for 48 hrs by MTT assay. In kind it is toxicity, cell-based.
Series [13] concerns the target T1, Protein deacetylase HDAC6. The series can be described thus: Inhibition of HDAC6 (unknown origin) using Boc-Lys(acetyl)-AMC as substrate preincubated for 5 mins followed by substrate addition and measured after 30 mins by fluorescence based assay.
Series [14] in a line: Metabolic stability in mouse liver microsomes assessed as half life at 1 uM incubated in presence of NADPH by LC-MS/MS analysis. Format: ADME, Microsome.
Series [15] deals with RPMI-8226. The series can be described thus: Antitumor activity against human RPMI-8226 cells xenografted in BALB/c-nu mouse assessed as reduction in tumor growth by measuring relative increment ratio T/C at 50 mg/kg/day, ip administered for 19 days and measured every 3 days by vernier caliper relative to control. Format: functional. As to conditions: time 19 day.
In series [16] the test system is KYSE-450. The series can be described thus: Antiproliferative activity against human KYSE-450 cells. Format: functional, cell-based.
Series [17] has as its system MGC-803. Kind of series: Antiproliferative activity against human MGC-803 cells. Format: functional, cell-based.
A further series relates to BGC-823. The series can be described thus: Antiproliferative activity against human BGC-823 cells. Format: functional, cell-based.
The next series concerns HGC-27. The series can be described thus: Antiproliferative activity against human HGC-27 cells. In kind it is functional, cell-based.
The test system of series [18] is MGC-803. The series can be described thus: Antitumor activity against human MGC-803 cells xenografted in mouse assessed as tumor growth inhibition at 20 mg/kg relative to control. In kind it is functional. The following applies: read-out: TGI.
In series [19] the test system is KYSE-450. Kind of series: Potency index, ratio of vorinostat IC50 to test compound IC50 for antiproliferative activity against human KYSE-450 cells. Format: functional.
Series [20] has as its system HCT-116. The series can be described thus: Potency index, ratio of vorinostat IC50 to test compound IC50 for antiproliferative activity against human HCT-116 cells. Format: functional.
Series [21] deals with KYSE-450. The series can be described thus: Potency index, ratio of TAE-226 IC50 to test compound IC50 for antiproliferative activity against human KYSE-450 cells. In kind it is functional.
In series [22] the test system is HCT-116. The series can be described thus: Potency index, ratio of TAE-226 IC50 to test compound IC50 for antiproliferative activity against human HCT-116 cells. Format: functional.
The target of another series is Focal adhesion kinase 1 (Homo sapiens, UniProt Q05397). The series can be described thus: Inhibition of FAK (unknown origin).
Chain of Focal adhesion kinase 1 (Q05397 whole entry): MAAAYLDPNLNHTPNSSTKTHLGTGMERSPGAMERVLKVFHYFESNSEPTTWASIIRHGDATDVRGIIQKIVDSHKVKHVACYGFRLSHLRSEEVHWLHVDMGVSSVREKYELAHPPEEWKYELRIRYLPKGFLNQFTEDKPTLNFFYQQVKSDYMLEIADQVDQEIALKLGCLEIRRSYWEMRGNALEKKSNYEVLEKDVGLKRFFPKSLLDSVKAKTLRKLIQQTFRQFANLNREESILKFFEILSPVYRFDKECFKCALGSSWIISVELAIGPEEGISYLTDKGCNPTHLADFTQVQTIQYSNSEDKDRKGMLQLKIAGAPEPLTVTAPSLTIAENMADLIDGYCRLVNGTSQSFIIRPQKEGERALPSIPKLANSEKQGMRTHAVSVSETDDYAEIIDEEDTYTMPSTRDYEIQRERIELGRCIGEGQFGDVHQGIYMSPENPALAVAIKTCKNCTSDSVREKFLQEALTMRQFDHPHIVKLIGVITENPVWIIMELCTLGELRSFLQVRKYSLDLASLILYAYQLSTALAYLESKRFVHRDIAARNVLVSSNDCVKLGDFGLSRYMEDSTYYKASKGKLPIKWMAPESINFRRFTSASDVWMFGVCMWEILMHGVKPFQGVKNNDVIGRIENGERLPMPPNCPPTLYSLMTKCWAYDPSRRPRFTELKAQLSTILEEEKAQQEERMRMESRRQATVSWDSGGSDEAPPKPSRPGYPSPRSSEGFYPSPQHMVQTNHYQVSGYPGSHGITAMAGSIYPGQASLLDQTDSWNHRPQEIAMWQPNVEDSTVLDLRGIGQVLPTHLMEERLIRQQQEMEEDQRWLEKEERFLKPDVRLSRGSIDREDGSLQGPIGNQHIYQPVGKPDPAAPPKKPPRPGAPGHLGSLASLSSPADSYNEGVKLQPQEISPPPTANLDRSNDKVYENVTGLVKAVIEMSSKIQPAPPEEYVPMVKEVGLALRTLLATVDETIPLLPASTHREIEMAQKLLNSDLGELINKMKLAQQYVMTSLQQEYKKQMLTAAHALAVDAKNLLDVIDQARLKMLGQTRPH

Chain of E3 ubiquitin-protein ligase Mdm2 (Homo sapiens) (Q00987 whole entry, looked up): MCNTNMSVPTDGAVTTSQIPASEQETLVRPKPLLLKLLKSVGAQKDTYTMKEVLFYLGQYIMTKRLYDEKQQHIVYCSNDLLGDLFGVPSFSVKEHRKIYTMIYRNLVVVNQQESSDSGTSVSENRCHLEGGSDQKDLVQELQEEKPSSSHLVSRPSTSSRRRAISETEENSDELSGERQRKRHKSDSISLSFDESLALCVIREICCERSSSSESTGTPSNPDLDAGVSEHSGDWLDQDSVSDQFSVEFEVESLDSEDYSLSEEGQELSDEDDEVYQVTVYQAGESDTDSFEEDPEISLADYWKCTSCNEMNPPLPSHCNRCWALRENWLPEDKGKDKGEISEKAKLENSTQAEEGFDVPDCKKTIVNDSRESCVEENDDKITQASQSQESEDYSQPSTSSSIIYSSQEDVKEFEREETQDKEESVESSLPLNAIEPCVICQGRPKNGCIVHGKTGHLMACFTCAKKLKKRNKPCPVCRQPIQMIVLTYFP
Chain of Cytochrome P450 2D6 (P10635 whole entry): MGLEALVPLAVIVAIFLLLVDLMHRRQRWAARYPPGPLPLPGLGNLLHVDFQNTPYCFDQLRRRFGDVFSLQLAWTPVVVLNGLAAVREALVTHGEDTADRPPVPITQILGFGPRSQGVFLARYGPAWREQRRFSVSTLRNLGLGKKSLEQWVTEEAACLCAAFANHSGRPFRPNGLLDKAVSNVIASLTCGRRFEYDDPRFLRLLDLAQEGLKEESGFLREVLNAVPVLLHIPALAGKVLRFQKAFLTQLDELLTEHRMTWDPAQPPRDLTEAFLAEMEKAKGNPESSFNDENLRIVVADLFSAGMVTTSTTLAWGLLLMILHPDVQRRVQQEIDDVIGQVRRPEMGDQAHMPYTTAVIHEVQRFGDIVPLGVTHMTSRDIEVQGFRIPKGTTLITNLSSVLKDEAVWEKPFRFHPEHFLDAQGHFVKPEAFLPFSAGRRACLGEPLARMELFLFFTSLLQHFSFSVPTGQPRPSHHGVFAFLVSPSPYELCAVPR

On to `COc1ccc2c3ccnc(C)c3n(CC3CCN(c4ncc(C(=O)NO)cn4)CC3)c2c1`, for which the IC50 is 450 nM in [1]; 1410 nM in the series on A549; 1410 nM in the series with HepG2; 22 nM against Histone deacetylase 1; 1410 nM with HT-29; 11300 nM in series [2]. Further, the IC50 stood at 18500 nM in series [3] and 1410 nM in the series on HCT-116 [4].

On to `O=C(CCCCCCC(=O)N1CCC(C(=O)Nc2ccc([C@@H]3[C@H]4CSCN4[C@]4(C(=O)Nc5cc(Cl)ccc54)[C@H]3C(=O)c3ccccc3)cc2)CC1)NO`, for which the IC50 with A-431, in the series with MCF7 and in the series with HCT-116 [5] was 1370 nM in each case. The compound also returned an inhibition in series [6] of 65%.

On to `Nc1ccn(Cc2ccc(-c3cn(CCCCCCC(=O)NO)nn3)cc2)c(=O)n1`, for which the half-maximal inhibitory concentration (IC50) was 8.37 nM in [1]; 2.68 nM on Histone deacetylase 1; 7100 nM in the series with K562; 7100 nM in the series with U-937; 7100 nM with HCT-116 [7]; 6390 nM in series [8]. On Cytochrome P450 2D6, the IC50 worked out at 8700 nM. Further, in [9], the half-life worked out at 6.08 h.

As to `O=C(NO)c1ccc(CNc2ncnc3[nH]ccc23)cc1`, the IC50 in the series with RPMI-8226 [10] is 620 nM; in the series with U-266 it was 620 nM; in the series on MM1.S, 620 nM; in series [13] it was 10 nM. The IC50 at 48 h in series [11] and in series [12] was greater than 50000 nM each time. Also, in [14], the half-life at 1 µM is greater than 1 h. For the same compound, in the series with RPMI-8226 [15], the T/C was 70%.

Take `CNC(=O)c1ccccc1Nc1nc(Nc2ccc(NC(=O)CCCCCCC(=O)NO)cc2)ncc1Cl`: the IC50 in the series with KYSE-450 [16] is 182 nM; with MGC-803 [17] it was 3.9 nM; with BGC-823 it was 15.4 nM; in the series on HGC-27, 18.4 nM; in series [1], 16 nM; against Focal adhesion kinase 1, 132 nM. Moreover, in the series on HCT-116 [4], half-maximal inhibition (IC50) was put at 182 nM. Besides, the inhibition in vivo at 20 mg/kg in the series on MGC-803 [18] came out at 53.5%. Also, the “Ratio IC50” value in the series on KYSE-450 [19], in the series on HCT-116 [20], in the series on KYSE-450 [21] and with HCT-116 [22] was 2.8 in each case.
